In patent US8207206B2, “(S,R)-3-phenyl-4,5 dihydro-5-isoxazole acetic acid-nitric oxide and use thereof as anti-cancer and antiviral agent” (OncoNOx APS, priority 2007, dated 2012):

What was measured:
B16 mouse melanoma cells = experiment: MTT / CV cell viability test; type: cell-based; conditions: B16 cells, different concentrations, 24 h; cell number also reduced by CV
Experimental: (§1) Rat glioma cell line C6 was a kind gift from Dr. Pedro Tranque (Universidad de Castilla-La Mancha, Albacete, Spain), murine melanoma B16 cell line was a kind gift from Dr. Sinisa Radulovic (Institute for Oncology and Radiology of Serbia, Belgrade, Serbia) while mouse fibrosarcoma L929 was obtained from the European Collection of Animal Cell Cultures (Salisbury, UK). Cells were grown in HEPES-buffered RPM, 1640 medium supplemented with 5% FCS, 2 mM glutamine, 0.01% sodium pyruvate, 5×10^−5 M 2-mercaptoethanol and antibiotics (culture medium) at 37° C. in a humidified atmosphere with 5% CO2. After conventional trypsinization the cells were seeded at a concentration of 10^4 cells/well in a 96-well plate, of 2×10^5 cells/well in a 6-well plate or at 3×10^4 cells/well in a 4-well chamber slide, cultivated overnight, and then exposed to the test compound.
(§2) The cells were seeded in flat-bottom 96-well plates (10^4 cells/well) in a final volume of 200 μl of culture medium, incubated overnight, then treated with different concentrations of the test compound. After 24 h incubation, cell viability was assessed using 3-4,5-dimethylthiazol-2-yl)-2,5-diphenyltetrazolium bromide (MTT) test, based on the mitochondrial-dependent reduction of MTT to formazan, or by crystal violet (CV) staining of adherent cells, as previously described (Mijatovic et al CMLS 2004). The results are presented as % of control values obtained in untreated cultures. The rate of cell proliferation was also determined using flow cytometric analysis of cells labeled with CFSE (Kang 2005). The cells were detached, added with 1.5 μM CFSE and allowed to stand for 15 min at 37° C., then washed twice and seeded in 6-well plates at 2×10^5. The cells were treated with the compound for 24 and 48 h, trypsinized and washed twice. Finally, the cells were resuspended in PBS and analyzed by flow cytometry. Green fluorescence emission from cells illuminated with excitation light of 488 nm was measured with a FACS Calibur (BD, Heidelberg, Germany) and analyzed using the CellQuest software.

C6 rat astrocytoma cells = experiment: MTT / CV cell viability test; type: cell-based; conditions: C6 cells, different concentrations, 24 h; cell number also reduced by CV
Experimental: as §1, §2

[1] = system: L929 mouse fibrosarcoma cells; experiment: MTT / CV cell viability test; type: cell-based; conditions: L929 cells, different concentrations, 24 h; cell number also reduced by CV
Experimental: as §1, §2

C6 cells = experiment: ROS measurement by DHR fluorescence (flow cytometry); type: cell-based, rat; conditions: C6, 25 μg/ml, 24 h
Experimental: (§3) The cells grown in the 6-well plate were stained with 1 μM dihydrorhodamine 123 (DHR) 20 min before the treatment with the test compound. At the end of the cultivation period the cells were detached, washed and resuspended in PBS. Analysis of ROS release was performed with a FACSCalibur and analyzed using CellQuest Pro software (Kaludjerovic 2005).

B16 cells = experiment: as above; type: cell-based, mouse; conditions: B16, 25 μg/ml, 24 h
Experimental: as §3

L929 cells = experiment: as above; type: cell-based, mouse; conditions: L929, 25 μg/ml, 24 h
Experimental: as §3

diabetes = conditions: NOD mice with spontaneous or accelerated diabetes, or multiple low dose streptozotocin diabetes; cited from earlier work

## O=C(O)CC1CC(c2ccccc2)=NO1 (racemic) [VGX-1027, (S,R)-3-phenyl-4,5-dihydro-5-isoxasole acetic acid, reference compound]
B16 mouse melanoma cells
  cell viability (MTT, mitochondrial respiration): did not affect the viability
C6 rat astrocytoma cells
  cell viability (MTT, mitochondrial respiration): did not affect the viability
[1]
  cell viability (MTT, mitochondrial respiration): did not affect the viability
C6 cells
  intracellular production of ROS (DHR fluorescence): did not release ROS
B16 cells
  intracellular production of ROS (DHR fluorescence): did not release ROS
L929 cells
  intracellular production of ROS (DHR fluorescence): did not release ROS
diabetes
  diabetes progress: significantly reduces diabetes progress
